Test results from ChEMBL document CHEMBL5316326, “Discovery of a Novel Covalent EZH2 Inhibitor Based on Tazemetostat Scaffold for the Treatment of Ovarian Cancer” (J Med Chem, 2023).
Calls of active or inactive are those of the source. No cut-off for these calls is given here.

Key:
[1] = target: Protein arginine N-methyltransferase 5 (Homo sapiens) (UniProt O14744); assay: Inhibition of PRMT5 (unknown origin) at 1 to 10 uM by AlphaLlSA assay; conditions: dose 1-10 µM
A2780 = assay: Antiproliferative activity against human A2780 cells assessed as inhibition of cell proliferation incubated for 72 hrs by MTT assay; format: functional, cell-based; conditions: A2780, 72 h
4T1 = assay: Antiproliferative activity against mouse 4T1 cells assessed as inhibition of cell proliferation incubated for 72 hrs by MTT assay; format: functional, cell-based; conditions: 4T1, 72 h
PA-1 [2] = assay: Induction of apoptosis in human PA-1 cells assessed as late apoptotic cells at 10 uM incubated for 48 hrs by AnnexinV-FITC/PI staining based flow cytometry analysis (Rvb= 3.09%); format: functional
[3] = system: Histone-lysine N-methyltransferase EZH2 (Homo sapiens), Q15910 [Y641F]; conditions: dose 10.0 nM
Description: Inhibition of EZH2 Y614F mutant (unknown origin) at 10 nM by AlphaLlSA assay

[4] = target: T1, Histone-lysine N-methyltransferase EZH2 (Homo sapiens, UniProt Q15910); assay: Inhibition of EZH2 methyltransferase activity in human A2780 cells assessed as reduction in H3K27me3 level incubated for 3 days by Western blot analysis; format: cell-based
Target sequence in this assay (Q15910 whole entry): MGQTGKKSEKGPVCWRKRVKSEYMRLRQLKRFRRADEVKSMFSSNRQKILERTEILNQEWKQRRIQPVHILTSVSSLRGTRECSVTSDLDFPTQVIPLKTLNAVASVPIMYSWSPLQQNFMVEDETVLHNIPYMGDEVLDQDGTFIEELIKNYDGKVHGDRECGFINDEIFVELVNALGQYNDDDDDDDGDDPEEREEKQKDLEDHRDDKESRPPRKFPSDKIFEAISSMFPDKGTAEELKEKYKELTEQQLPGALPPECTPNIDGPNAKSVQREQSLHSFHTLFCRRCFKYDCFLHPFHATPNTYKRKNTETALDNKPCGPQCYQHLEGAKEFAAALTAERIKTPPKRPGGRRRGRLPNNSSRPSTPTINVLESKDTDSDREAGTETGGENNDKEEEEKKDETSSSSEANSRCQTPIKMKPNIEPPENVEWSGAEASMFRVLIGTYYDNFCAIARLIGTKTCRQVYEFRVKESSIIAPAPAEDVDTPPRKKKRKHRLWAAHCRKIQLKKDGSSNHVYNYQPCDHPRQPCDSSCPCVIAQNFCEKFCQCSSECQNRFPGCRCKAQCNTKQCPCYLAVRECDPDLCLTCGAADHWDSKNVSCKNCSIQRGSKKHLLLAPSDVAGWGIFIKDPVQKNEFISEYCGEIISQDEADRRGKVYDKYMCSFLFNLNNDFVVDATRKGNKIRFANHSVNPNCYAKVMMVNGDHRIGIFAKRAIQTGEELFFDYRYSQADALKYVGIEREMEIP

PA-1 [5] = assay: Inhibition of colony formation in human PA-1 cells assessed as reduction in size of colonies at 0.25 to 10 uM incubated for 14 days with medium change every 3 days by crystal violet staining method; format: functional, cell-based; conditions: dose 0.25-10 µM, time 14.0 day
PA-1 [6] = assay: Antitumor activity against human PA-1 cells xenografted in BALB/C nude mouse assessed as reduction tumor cell proliferation at 75 to 150 mg/kg,po BID for 21 days by Ki67 staining based immunohistochemical analysis; format: functional, organism-based; conditions: dose 75-150 mg/kg, time 21.0 day
PA-1 [7] = assay: Induction of apoptosis in human PA-1 cells assessed as late apoptotic cells at 5 uM incubated for 48 hrs by AnnexinV-FITC/PI staining based flow cytometry analysis (Rvb= 3.09%); format: functional
PA-1 [8] = assay: Induction of apoptosis in human PA-1 cells assessed as early apoptotic cells at 20 uM incubated for 48 hrs by AnnexinV-FITC/PI staining based flow cytometry analysis (Rvb= 6.89%); format: functional
PA-1 [9] = assay: Antiproliferative activity against human PA-1 cells assessed as inhibition of cell proliferation incubated for 72 hrs by MTT assay; format: functional, cell-based; conditions: PA-1, 72 h
[10] = target: T1, Histone-lysine N-methyltransferase EZH2; assay: Inhibition of wild type EZH2 (unknown origin) by AlphaLlSA assay
Target sequence in this assay (Q15910 whole entry): as above

[11] = target: T1, Histone-lysine N-methyltransferase EZH2; assay: Inhibition of EZH2 methyltransferase activity in human PA-1 cells assessed as reduction in H3K27me3 level at 10 uM incubated for 3 days followed by compound washout and measured after 4 days by Western blot analysis; format: cell-based; conditions: time 3.0 day
Target sequence in this assay (Q15910 whole entry, looked up): as the sequence (Q15910 whole entry) above

PA-1 [12] = assay: Induction of apoptosis in human PA-1 cells assessed as early apoptotic cells at 5 uM incubated for 48 hrs by AnnexinV-FITC/PI staining based flow cytometry analysis (Rvb= 6.89%); format: functional
[13] = system: Histone-lysine N-methyltransferase EZH2 (Homo sapiens), Q15910 [Y641F]; assay: Inhibition of EZH2 […] mutant (unknown origin) at 1 nM by AlphaLlSA assay
PA-1 [14] = assay: Induction of apoptosis in human PA-1 cells assessed as early apoptotic cells at 10 uM incubated for 48 hrs by AnnexinV-FITC/PI staining based flow cytometry analysis (Rvb= 6.89%); format: functional
MCF7 = assay: Antiproliferative activity against human MCF7 cells assessed as inhibition of cell proliferation incubated for 72 hrs by MTT assay; format: functional, cell-based; conditions: MCF7, 72 h
OVCAR-3 = assay: Antiproliferative activity against human OVCAR-3 cells assessed as inhibition of cell proliferation incubated for 72 hrs by MTT assay; format: functional, cell-based; conditions: OVCAR-3, 72 h
[15] = Cmax in Sprague-Dawley rat at 5 mg/kg, iv and measured upto 24 hrs by LC-MS/MS analysis; format: ADME, organism-based; set-up: dose 5 mg/kg, time < 24 hrs, route iv; conditions: in vivo
[16] = AUCt in Sprague-Dawley rat at 100 mg/kg, po and measured upto 24 hrs by LC-MS/MS analysis; format: ADME, organism-based; set-up: time < 24 hrs, dose 100 mg/kg, route po; conditions: in vivo
[17] = target: T1, Histone-lysine N-methyltransferase EZH2; assay: Inhibition of EZH2 methyltransferase activity in human A2780 cells assessed as reduction in H3K27me3 level at 10 uM and measured upto 4 days by Western blot analysis; format: cell-based; conditions: time <= 4.0 day, TDE = time-dependent effect
Target sequence in this assay (Q15910 whole entry, looked up): as the sequence (Q15910 whole entry) above

[18] = target: T1, Histone-lysine N-methyltransferase EZH2; assay: Binding affinity to wild type recombinant EZH2 (494 to 737 residues) (unknown origin) expressed in Escherichia coli assessed as adduct formation incubated for 2 hrs by LC-MS analysis
Target sequence in this assay (Q15910 whole entry, looked up): as the sequence (Q15910 whole entry) above

PA-1 [19] = assay: Antitumor activity against human PA-1 cells xenografted in BALB/C nude mouse assessed as increase apoptosis by measuring cleaved caspase-3 positive cells at 75 to 150 mg/kg,po BID for 21 days by immunohistochemical analysis; format: functional, organism-based; conditions: dose 75-150 mg/kg, time 21.0 day
[20] = system: Histone-lysine N-methyltransferase EZH2 (Homo sapiens), Q15910 [A677G]; conditions: dose 10.0 nM
Description: Inhibition of EZH2 A667G mutant (unknown origin) at 10 nM by AlphaLlSA assay

[21] = Cmax in Sprague-Dawley rat at 100 mg/kg, po and measured upto 24 hrs by LC-MS/MS analysis; format: ADME, organism-based; set-up: dose 100 mg/kg, time < 24 hrs, route po; conditions: in vivo
[22] = target: Protein arginine N-methyltransferase 7 (Homo sapiens) (UniProt Q9NVM4); assay: Inhibition of PRMT7 (unknown origin) at 1 to 10 uM by AlphaLlSA assay; conditions: dose 1-10 µM
PA-1 [23] = assay: Induction of apoptosis in human PA-1 cells assessed as early apoptotic cells at 40 uM incubated for 48 hrs by AnnexinV-FITC/PI staining based flow cytometry analysis (Rvb= 6.89%); format: functional
PA-1 [24] = assay: Induction of apoptosis in human PA-1 cells assessed as necrotic cells at 5 uM incubated for 48 hrs by AnnexinV-FITC/PI staining based flow cytometry analysis (Rvb= 1.48%); format: functional
[25] = system: Histone-lysine N-methyltransferase EZH2 (Homo sapiens), Q15910 [A677G]; assay: Inhibition of EZH2 […] mutant (unknown origin) at 1 nM by AlphaLlSA assay
[26] = target: Histone-lysine N-methyltransferase EZH1 (Homo sapiens) (UniProt Q92800); assay: Inhibition of EZH1 (unknown origin) by AlphaLlSA assay
SK-BR-3 = assay: Antiproliferative activity against human SK-BR-3 cells assessed as inhibition of cell proliferation incubated for 72 hrs by MTT assay; format: functional, cell-based; conditions: SK-BR-3, 72 h
[27] = Glutathione reactivity in pH 7.4 phosphate buffer assessed as GSH-adduct formation at 1 mM incubated for 2 to 12 hrs by HPLC-MS analysis; format: physicochemical; conditions: pH 7.4, 1000 µM, time 2-12 hrs
[28] = Toxicity in BALB/C nude mouse xenografted with human PA-1 cells assessed as pathological changes in kidney at 75 to 150 mg/kg,po BID for 21 days by H&E staining based microscopic analysis; format: organism-based; conditions: in vivo, 504 h, dose 75-150 mg/kg, time 21 day
PA-1 [29] = assay: Induction of apoptosis in human PA-1 cells assessed as viable cells at 10 uM incubated for 48 hrs by AnnexinV-FITC/PI staining based flow cytometry analysis (Rvb= 88.53%); format: functional; conditions: read-out: Activity
[30] = target: T1, Histone-lysine N-methyltransferase EZH2; assay: Inhibition of EZH2 methyltransferase activity in human PA-1 cells assessed as reduction in H3K27me3 level at 10 uM and measured upto 4 days by Western blot analysis; format: cell-based; conditions: time <= 4.0 day, TDE = time-dependent effect
Target sequence in this assay (Q15910 whole entry, looked up): as the sequence (Q15910 whole entry) above

Histone-lysine N-methyltransferase EZH2 (Homo sapiens), Q15910 [Y641F], sequence (Q15910 whole entry Y641F, looked up): as the sequence (Q15910 whole entry) above, with Y641F counted along it
Histone-lysine N-methyltransferase EZH2 (Homo sapiens), Q15910 [A677G], sequence (Q15910 whole entry A677G): as the sequence (Q15910 whole entry) above, with A677G counted along it
Protein arginine N-methyltransferase 5 (Homo sapiens), sequence (O14744 whole entry): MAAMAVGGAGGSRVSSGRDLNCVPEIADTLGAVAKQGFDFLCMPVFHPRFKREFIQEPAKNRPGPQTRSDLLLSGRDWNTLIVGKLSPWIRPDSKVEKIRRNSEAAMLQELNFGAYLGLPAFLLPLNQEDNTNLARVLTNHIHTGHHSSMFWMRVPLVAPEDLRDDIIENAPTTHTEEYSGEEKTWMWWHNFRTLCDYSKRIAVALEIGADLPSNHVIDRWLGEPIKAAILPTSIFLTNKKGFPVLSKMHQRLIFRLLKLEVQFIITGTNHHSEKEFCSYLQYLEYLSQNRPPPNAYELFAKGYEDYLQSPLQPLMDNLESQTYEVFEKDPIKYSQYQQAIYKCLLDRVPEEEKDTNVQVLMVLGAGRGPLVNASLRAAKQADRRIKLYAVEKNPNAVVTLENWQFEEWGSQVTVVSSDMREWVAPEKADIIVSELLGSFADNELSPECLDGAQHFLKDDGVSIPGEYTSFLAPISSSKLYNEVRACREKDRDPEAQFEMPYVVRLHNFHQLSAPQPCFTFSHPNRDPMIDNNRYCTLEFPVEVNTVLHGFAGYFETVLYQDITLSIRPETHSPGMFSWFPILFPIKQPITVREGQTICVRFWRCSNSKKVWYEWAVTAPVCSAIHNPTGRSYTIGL
Protein arginine N-methyltransferase 7 (Homo sapiens), sequence (Q9NVM4 whole entry): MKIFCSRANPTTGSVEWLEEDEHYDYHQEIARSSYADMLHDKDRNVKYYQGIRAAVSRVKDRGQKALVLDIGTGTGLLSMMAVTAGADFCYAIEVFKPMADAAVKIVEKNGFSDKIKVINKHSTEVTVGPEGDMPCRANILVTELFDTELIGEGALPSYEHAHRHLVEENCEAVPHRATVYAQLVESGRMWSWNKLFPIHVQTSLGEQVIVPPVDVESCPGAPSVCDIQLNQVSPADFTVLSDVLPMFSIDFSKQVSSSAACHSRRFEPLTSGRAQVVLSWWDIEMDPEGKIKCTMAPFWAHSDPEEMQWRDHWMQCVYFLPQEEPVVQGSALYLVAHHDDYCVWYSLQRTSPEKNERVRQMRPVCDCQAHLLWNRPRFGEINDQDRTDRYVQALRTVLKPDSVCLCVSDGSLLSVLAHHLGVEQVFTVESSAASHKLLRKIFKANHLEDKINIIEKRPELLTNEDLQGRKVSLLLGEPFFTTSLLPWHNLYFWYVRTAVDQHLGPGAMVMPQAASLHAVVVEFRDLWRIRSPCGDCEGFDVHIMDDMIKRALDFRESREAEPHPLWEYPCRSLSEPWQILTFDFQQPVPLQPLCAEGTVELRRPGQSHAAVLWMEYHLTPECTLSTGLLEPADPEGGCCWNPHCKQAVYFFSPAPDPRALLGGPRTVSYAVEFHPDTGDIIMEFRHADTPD
Histone-lysine N-methyltransferase EZH1 (Homo sapiens), sequence (Q92800 whole entry): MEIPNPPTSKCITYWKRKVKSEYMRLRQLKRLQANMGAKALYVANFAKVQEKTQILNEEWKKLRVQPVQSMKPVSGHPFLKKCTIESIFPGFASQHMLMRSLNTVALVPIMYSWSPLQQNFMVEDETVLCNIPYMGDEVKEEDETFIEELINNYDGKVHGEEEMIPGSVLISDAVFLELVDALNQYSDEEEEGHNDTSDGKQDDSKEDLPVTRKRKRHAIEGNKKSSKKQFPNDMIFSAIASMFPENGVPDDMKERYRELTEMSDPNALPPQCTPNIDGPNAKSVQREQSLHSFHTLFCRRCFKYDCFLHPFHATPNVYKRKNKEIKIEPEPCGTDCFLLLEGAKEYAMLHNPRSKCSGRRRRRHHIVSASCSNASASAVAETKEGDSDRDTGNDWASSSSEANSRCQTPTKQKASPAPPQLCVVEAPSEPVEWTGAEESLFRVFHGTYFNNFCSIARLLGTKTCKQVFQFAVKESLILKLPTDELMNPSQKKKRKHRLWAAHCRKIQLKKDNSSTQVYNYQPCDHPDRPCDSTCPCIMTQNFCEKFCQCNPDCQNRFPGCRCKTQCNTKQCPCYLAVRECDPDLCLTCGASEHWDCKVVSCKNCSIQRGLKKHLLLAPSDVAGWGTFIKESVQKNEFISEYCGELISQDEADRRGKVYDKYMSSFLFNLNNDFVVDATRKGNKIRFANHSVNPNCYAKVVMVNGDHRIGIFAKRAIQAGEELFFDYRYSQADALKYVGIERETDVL

## C=CC(=O)Nc1ccc(C)c(-c2cc(C(=O)NCc3c(C)cc(C)[nH]c3=O)c(C)c(N(CC)C3CCOCC3)c2)c1
[1]
  inhibition: inactive
A2780
  IC50: 11.2 µM
4T1
  IC50: 24.5 µM
PA-1 [2]
  Activity: 6.16%
[3]
  inhibition: Active
[4]
  IC50: 1.27 µM
PA-1 [5]
  inhibition: Dose-Dependent Effect
PA-1 [6]
  Activity: Active
PA-1 [7]
  Activity: 5.21%
PA-1 [8]
  Activity: 31.78%
PA-1 [9]
  IC50: 10.1 µM
[10]
  IC50: 0.00172 µM
[11]
  inhibition: Active
PA-1 [12]
  Activity: 10.39%
[13]
  inhibition: Active
PA-1 [14]
  Activity: 22.39%
MCF7
  IC50: 56.2 µM
OVCAR-3
  IC50: 35.6 µM
[15]
  Cmax: 22800 ng/mL
[16]
  AUC(0-t) at 24 h: 12600 ng·h/mL
[17]
  inhibition: Tde
[18]
  Activity: Active
PA-1 [19]
  Activity: Active
[20]
  inhibition: Active
[21]
  Cmax: 6740 ng/mL
[22]
  inhibition: inactive
PA-1 [23]
  Activity: 87.19%
PA-1 [24]
  Activity: 1.22%
[25]
  inhibition: Active
[26]
  inhibition: Active
SK-BR-3
  IC50: 22.8 µM
[27]
  Activity: Not Active
[28]
  Activity: Non-Toxic
PA-1 [29]
  viability at 10 µM: 70.5%
[30]
  inhibition: Tde
